Measurements published in patent US9776962B2, “Aromatic compounds with GPR40 agonistic activity” (TAKEDA PHARMACEUTICAL COMPANY LIMITED, priority 2013, dated 2017).

These molecules were tested against T1, human GPR40 (Homo sapiens, UniProt O14842) (assay: Evaluation of human GPR40 agonist activity with increase in intracellular Ca2+ concentration as an index (FLIPR)). Conditions: test compound 1 μM; CHO(dhfr−) cells stably expressing human GPR40; 100% = 10 μM compound of Example 153, 0% = DMSO.
T1 construct: expressed in transfected cells
Format: cell-based
In short: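 CHO(dhfr−) cells stably expressing full-length human GPR40 were loaded with Ca2+ probe for 1 h at room temperature, then given test compound at 1 μM final. Fluorescence was followed on FLIPR, with activity scaled to a reference agonist at 10 μM (100%) and DMSO (0%).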

T1 sequence (O14842 whole entry): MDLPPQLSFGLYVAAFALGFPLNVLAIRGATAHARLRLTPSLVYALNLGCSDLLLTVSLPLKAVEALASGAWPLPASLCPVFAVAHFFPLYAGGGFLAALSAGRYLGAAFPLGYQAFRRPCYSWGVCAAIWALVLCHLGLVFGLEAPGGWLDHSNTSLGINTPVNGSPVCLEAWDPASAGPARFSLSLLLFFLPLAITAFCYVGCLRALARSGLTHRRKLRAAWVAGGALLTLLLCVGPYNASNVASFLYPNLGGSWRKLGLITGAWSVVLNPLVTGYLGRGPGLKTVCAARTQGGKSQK

activation at 1 µM | SMILES
96% | COCC(CC(=O)O)c1cccc(OCC2CCN(c3cc(OC)ccc3C(=O)N(CC(C)(C)C)c3cccc(C)n3)CC2)c1 (centres unmarked) [Example 276, 3-(3-((1-(2-((2,2-dimethylpropyl) (6-methylpyridin-2-yl)carbamoyl)-5-methoxyphenyl)piperidin-4-yl)methoxy)phenyl)-4-methoxybutanoic acid]
94% | COc1ccc(C(=O)N(CC(C)C)c2ccnc(OC)c2)c(N2CCC(COc3cc(C(CC(=O)O)C4CC4)ccn3)CC2)c1 (centres unmarked) [Example 127, 3-cyclopropyl-3-(2-((1-(5-methoxy-2-((2-methoxypyridin-4-yl)(2-methylpropyl)carbamoyl)phenyl)piperidin-4-yl)methoxy)pyridin-4-yl)propanoic acid]
82% | COc1ccc(C(=O)N(c2ccccn2)C(C)C)c(N2CCC(COc3cc(C(CC(=O)O)C4CC4)ccn3)CC2)c1 (centres unmarked) [Example 146, 3-cyclopropyl-3-(2-((1-(5-methoxy-2-(propan-2-yl(pyridin-2-yl)carbamoyl)phenyl)piperidin-4-yl)methoxy)pyridin-4-yl)propanoic acid]
96% | COc1ccc(C(=O)N(CC(F)F)c2cc(C)ccn2)c(N2CCC(COc3cc(C(CC(=O)O)C4CC4)ccn3)CC2)c1 (centres unmarked) [Example 157, 3-cyclopropyl-3-(2-((1-(2-((2,2-difluoroethyl)(4-methylpyridin-2-yl)carbamoyl)-5-methoxyphenyl)piperidin-4-yl)methoxy)pyridin-4-yl)propanoic acid]
101% | COc1ccc(C(=O)N(CC(C)(C)C)c2ccnc(C)n2)c(N2CCC(COc3cc(C(CC(=O)O)C4CC4)ccn3)CC2)c1 (centres unmarked) [Example 229, 3-cyclopropyl-3-(2-((1-(2-((2,2-dimethylpropyl) (2-methylpyrimidin-4-yl)carbamoyl)-5-methoxyphenyl)piperidin-4-yl)methoxy)pyridin-4-yl)propanoic acid]
89% | COc1ccc(C(=O)N(CC2(F)CC2)c2ccccc2)c(N2CCC(COc3cc(C(CC(=O)O)C4CC4)ccn3)CC2)c1 (centres unmarked) [Example 189, 3-cyclopropyl-3-(2-((1-(2-(((1-fluorocyclopropyl)methyl)(phenyl)carbamoyl)-5-methoxyphenyl)piperidin-4-yl)methoxy)pyridin-4-yl)propanoic acid]
95% | CCOC(CC(=O)O)c1cccc(OCC2CCN(c3cc(OC)ccc3C(=O)N(CC(C)(C)C)c3cccc(C)n3)CC2)c1 (centres unmarked) [Example 270, 3-(3-((1-(2-((2,2-dimethylpropyl)(6-methylpyridin-2-yl)carbamoyl)-5-methoxyphenyl)piperidin-4-yl)methoxy)phenyl)-3-ethoxypropanoic acid]
90% | COc1ccc(C(=O)N(CC(F)F)c2ncccn2)c(N2CCC(COc3cc(C(CC(=O)O)C4CC4)ccn3)CC2)c1 (centres unmarked) [Example 167, 3-cyclopropyl-3-(2-((1-(2-((2,2-difluoroethyl)(pyrimidin-2-yl)carbamoyl)-5-methoxyphenyl)piperidin-4-yl)methoxy)pyridin-4-yl)propanoic acid]
98% | COc1ccc(C(=O)N(CC(C)(C)C)c2ncccn2)c(N2CCC(COc3cc(C(CC(=O)O)C4CC4)ccn3)CC2)c1 (centres unmarked) [Example 156, 3-cyclopropyl-3-(2-((1-(2-((2,2-dimethylpropyl)(pyrimidin-2-yl)carbamoyl)-5-methoxyphenyl)piperidin-4-yl)methoxy)pyridin-4-yl)propanoic acid]
94% | COc1ccc(C(=O)N(CC(C)(C)C)C2CCCC2)c(N2CCC(COc3cc(C(CC(=O)O)C4CC4)ccn3)CC2)c1 (centres unmarked) [Example 198, 3-(2-((1-(2-(cyclopentyl(2,2-dimethylpropyl)carbamoyl)-5-methoxyphenyl)piperidin-4-yl)methoxy)pyridin-4-yl)-3-cyclopropylpropanoic acid]
96% | Cc1cccc(N(CC(C)(C)C)C(=O)c2ccc(OC(F)F)cc2N2CCC(COc3cc(C(CC(=O)O)C4CC4)ccn3)CC2)n1 (centres unmarked) [Example 267, 3-cyclopropyl-3-(2-((1-(5-(difluoromethoxy)-2-((2,2-dimethylpropyl)(6-methylpyridin-2-yl)carbamoyl)phenyl)piperidin-4-yl)methoxy)pyridin-4-yl)propanoic acid]
73% | COc1ccc(C(=O)N(CCC#N)c2ccccc2)c(N2CCC(COc3cccc(C(CC(=O)O)C4CC4)c3)CC2)c1 (centres unmarked) [Example 6, 3-(3-((1-(2-((2-cyanoethyl)(phenyl)carbamoyl)-5-methoxyphenyl)piperidin-4-yl)methoxy)phenyl)-3-cyclopropylpropanoic acid]
103% | COc1ccc(C(=O)N(CC(C)(C)C)c2nccc(C)n2)c(N2CCC(COc3cc(C(CC(=O)O)C4CC4)ccn3)CC2)c1 (centres unmarked) [Example 173, 3-cyclopropyl-3-(2-((1-(2-((2,2-dimethylpropyl)(4-methylpyrimidin-2-yl)carbamoyl)-5-methoxyphenyl)piperidin-4-yl)methoxy)pyridin-4-yl)propanoic acid]
103% | COc1ccc(C(=O)N(CC(C)C)c2cccc(OC)n2)c(N2CCC(COc3cc(C(CC(=O)O)C4CC4)ccn3)CC2)c1 (centres unmarked) [Example 128, 3-cyclopropyl-3-(2-((1-(5-methoxy-2-((6-methoxypyridin-2-yl)(2-methylpropyl)carbamoyl)phenyl)piperidin-4-yl)methoxy)pyridin-4-yl)propanoic acid]
97% | COc1ccc(C(=O)N(C)CC(C)C)c(N2CCC(COc3cccc(C(CC(=O)O)C4CC4)c3)CC2)c1 (centres unmarked) [Example 1, 3-cyclopropyl-3-(3-((1-(5-methoxy-2-(methyl(2-methylpropyl)carbamoyl)phenyl)piperidin-4-yl)methoxy)phenyl)propanoic acid]
98% | COc1ccc(C(=O)N(CC2(C)CC2)c2ccccn2)c(N2CCC(COc3cc(C(CC(=O)O)C4CC4)ccn3)CC2)c1 (centres unmarked) [Example 114, 3-cyclopropyl-3-(2-((1-(5-methoxy-2-(((1-methylcyclopropyl)methyl)(pyridin-2-yl)carbamoyl)phenyl)piperidin-4-yl)methoxy)pyridin-4-yl)propanoic acid]
99% | COc1cc(N2CCC(COc3cc(C(CC(=O)O)C4CC4)ccn3)CC2)c(C(=O)N(CC2CC2)c2cc(C)cc(C)n2)cn1 (centres unmarked) [Example 285, 3-cyclopropyl-3-(2-((1-(5-((cyclopropylmethyl) (4,6-dimethylpyridin-2-yl)carbamoyl)-2-methoxypyridin-4-yl)piperidin-4-yl)methoxy)pyridin-4-yl)propanoic acid]
110% | COc1ccc(C(=O)N(CC(C)(C)C)c2cccc(C)n2)c(N2CCC(COc3cccc(C(C)(C)CC(=O)O)c3)CC2)c1 [Example 277, 3-(3-((1-(2-((2,2-dimethylpropyl) (6-methylpyridin-2-yl)carbamoyl)-5-methoxyphenyl)piperidin-4-yl)methoxy)phenyl)-3-methylbutanoic acid]
92% | COc1ccc(C(=O)N(CC(C)(C)C)c2ccccn2)c(N2CCC(COc3cccc(C(CC(=O)O)C4CC4)c3)C(F)(F)C2)c1 [Example 281, (3S)-cyclopropyl-3-(3-((1-(2-((2,2-dimethylpropyl)-(pyridin-2-yl)carbamoyl)-5-methoxyphenyl)-3,3-difluoropiperidin-4-yl)methoxy)phenyl)-propanoic acid]
97% | COc1ccc(C(=O)N(CC(C)(C)C)c2nc(C)ccc2F)c(N2CCC(COc3cc(C(CC(=O)O)C4CC4)ccn3)CC2)c1 (centres unmarked) [Example 234, 3-cyclopropyl-3-(2-((1-(2-((2,2-dimethylpropyl) (3-fluoro-6-methylpyridin-2-yl)carbamoyl)-5-methoxyphenyl)piperidin-4-yl)methoxy)pyridin-4-yl)propanoic acid]
106% | COc1ccc(C(=O)N(CC(F)(F)F)c2nccc(C)n2)c(N2CCC(COc3cc(C(CC(=O)O)C4CC4)ccn3)CC2)c1 (centres unmarked) [Example 169, 3-cyclopropyl-3-(2-((1-(5-methoxy-2-((4-methylpyrimidin-2-yl)(2,2,2-trifluoroethyl)carbamoyl)phenyl)piperidin-4-yl)methoxy)pyridin-4-yl)propanoic acid]
98% | COc1ccc(C(=O)N(CC(F)(F)F)c2cc(C)ccn2)c(N2CCC(COc3cc(C(CC(=O)O)OC)ccn3)CC2)c1 (centres unmarked) [Example 271, 3-methoxy-3-(2-((1-(5-methoxy-2-((4-methylpyridin-2-yl)(2,2,2-trifluoroethyl)carbamoyl)phenyl)piperidin-4-yl)methoxy)pyridin-4-yl)propanoic acid]
103% | COc1cc(N2CCC(COc3cc(C(CC(=O)O)C4CC4)ccn3)CC2)c(C(=O)N(CC(C)(C)C)c2cc(C)cc(C)n2)cn1 (centres unmarked) [Example 284, 3-cyclopropyl-3-(2-((1-(5-((2,2-dimethylpropyl) (4,6-dimethylpyridin-2-yl)-carbamoyl)-2-methoxypyridin-4-yl)-piperidin-4-yl)-methoxy)pyridin-4-yl)propanoic acid]
89% | COc1ccc(C(=O)N2CCOCC2c2ccccc2)c(N2CCC(COc3cc(C(CC(=O)O)C4CC4)ccn3)CC2)c1 (centres unmarked) [Example 200, 3-cyclopropyl-3-(2-((1-(5-methoxy-2-((3-phenylmorpholin-4-yl)carbonyl)phenyl)piperidin-4-yl)methoxy)pyridin-4-yl)propanoic acid]
99% | COc1ccc(C(=O)N(CC(F)(F)F)c2cc(C)ncn2)c(N2CCC(COc3cc(C(CC(=O)O)C4CC4)ccn3)CC2)c1 (centres unmarked) [Example 240, 3-cyclopropyl-3-(2-((1-(5-methoxy-2-((6-methylpyrimidin-4-yl)-(2,2,2-trifluoroethyl)-carbamoyl)phenyl)-piperidin-4-yl)methoxy)-pyridin-4-yl)propanoic acid]
89% | CCc1ccc(C(=O)N(CC(F)(F)C(F)(F)F)C(C)C)c(N2CCC(COc3cccc(C(CC(=O)O)C4CC4)c3)CC2)c1 (centres unmarked) [Example 54, 3-cyclopropyl-3-(3-((1-(5-ethyl-2-((2,2,3,3,3-pentafluoropropyl)(propan-2-yl)carbamoyl)phenyl)piperidin-4-yl)methoxy)phenyl)propanoic acid]
